How the values were obtained:
Format in all cases: in vivo
[1] = test system: rice line ATCC 97523 (second resistance mechanism only); experiment: Greenhouse test of plant vigor after imazethapyr, ATCC 97523; conditions: for Rating of rice plant vigor: 36 days after treatment at 2-3 leaf stage, 10-point scale, 0 = dead plant, 10 = no visible injury
Text: In the greenhouse tests, pots were planted with F3 seed from crosses between the two lines. Each pot was planted with seed from a single panicle from a single plant; each pot was therefore the equivalent of a headrow. A total of 140 pots were planted in this manner, along with 40 pots of various non-resistant genotypes for comparison. Imazethapyr was applied at the 2-3 leaf stage two weeks after planting, at rates equivalent to 0.063 lb. active ingredient (a.i.) per acre, 0.125 lb. a.i./acre, and 0.313 lb. a.i./acre.
Table 2 summarizes measurements taken 36 days after spraying rice at the 2-3 leaf stage of development.

ATCC 75295 rice line = experiment: Field plot test with AHAS-inhibiting herbicides, ATCC 75295
Description: The resistance of these plants to several other AHAS-inhibiting herbicides was also tested. Nine-foot-long field plots were planted with seven rows of rice per plot. The test included nine check rice varieties, and the ATCC 75295 rice line. A shielded spray boom was used to apply herbicide, spraying six of the seven rows in each plot. The four herbicides used were Pursuit (imazethapyr: (±)-2-[4,5-dihydro-4-methyl-4-(1-methylethyl)-5-oxo-1H-imidazol-2-yl]-5-ethyl-3-pyridinecarboxylic acid); Scepter (imazaquin: 2-[4,5-dihydro-4-methyl-4-(1-methylethyl)-5-oxo-1H-imidazol-2-yl]-3-quinolinecarboxylic acid); Accent (nicosulfuron: 2-(((((4,6-dimethoxypyrimidin-2-yl)aminocarbonyl)) aminosulfonyl))-N,N-dimethyl-3-pyridinecarboxamide); and Beacon (primisulfuron: 3-[4,6-bis(difluoromethoxy)-pyrimidin-2-yl]-1-(2-methoxycarbonylphenylsulfonyl)urea). The herbicides were applied to two replicate plots for each herbicide when the rice was at the three-leaf stage of maturity. Two replicate plots of each check variety and of the resistant line were left unsprayed as controls. The Accent treatment used 0.67 ounce of product (0.50 ounce active ingredient) per acre, with 0.25% nonionic surfactant. The Pursuit treatment used four ounces of product (1.00 ounce active ingredient) per acre, with 0.25% nonionic surfactant. The Scepter treatment used one pint of product (3.00 ounces active ingredient) per acre, with 0.25% nonionic surfactant. The Beacon treatment used 0.76 ounce of product (0.57 ounce active ingredient) per acre, with 0.25% nonionic surfactant. […] A similar test with the same rice varieties and the ATCC 75295 line was conducted at the five-leaf stage of development (i.e., plants fifteen days older than in the test described above), using Accent and Pursuit at the rates given above. […] The ATCC 75295 line was resistant only when herbicide was applied post-emergence.

[2] = test system: single surviving plant derived from rice variety AS3510 treated with 0.5% EMS; experiment: Field screen of mutagenised rice seedlings, surviving plant; conditions: imazethapyr 0.125 lb a.i. per acre (2X), 0.25% non-ionic surfactant; 3-4 leaf stage; about four weeks later
Text: (§1) The second resistance mechanism resulted from inducing mutations in seeds of each of ten rice varieties. Mutations were induced by exposure either to gamma rays or to the chemical mutagen ethyl methanesulfonate (EMS). Ten-pound lots of seed of each variety were subjected to 25 k-rad of gamma irradiation from a Cobalt-60 source at the Nuclear Science Center, Louisiana State University, Baton Rouge, La. prior to planting. An additional ten pounds of seed of each variety was divided into three equal portions; and each portion was soaked for 16 hours in either 0.1%, 0.5%, or 1% EMS immediately prior to planting. Several hundred pounds of seed were harvested from plants grown from the seeds subjected to these mutagenic treatments.
(§2) The following spring the harvested seed was planted in strips in a field planting occupying a total of about three acres. At the 3-4 leaf stage of seedling development, herbicides were applied to screen for herbicide-resistant mutants. Half of the seedlings of each variety were sprayed with a 2X treatment of nicosulfuron, and half were sprayed with a 2X treatment of imazethapyr, in both cases by a tractor-mounted sprayer. Nicosulfuron was applied at the rate of 0.063 lb active ingredient (a.i.) per acre, and imazethapyr was applied at 0.125 lb a.i. per acre. Non-ionic surfactant (0.25%) was added to each spray solution. […]

[3] = test system: mutagenised rice seedlings of ten rice varieties; experiment: Field screen of mutagenised rice seedlings, all other plants; conditions: 2X treatment: nicosulfuron 0.063 lb a.i. per acre, imazethapyr 0.125 lb a.i. per acre; 0.25% non-ionic surfactant; 3-4 leaf stage; about four weeks later
Text: as §1, §2

[4] = test system: progeny of the mutant rice plant (ATCC 97523); experiment: Subsequent greenhouse and field testing of progeny of the surviving plant; conditions: herbicides applied either pre-emergence or post-emergence
Text: (Imazamox is sold by American Cyanamid under the trade name Raptor, and has as active ingredient (+)-5-methoxymethyl-2-(4-isopropyl-4-methyl-5-oxo-2-imidazolin-2-yl) nicotinic acid. Imazameth is sold by American Cyanamid under the trade name Cadre, and has as active ingredient (±)-2-[4,5-dihydro-4-methyl-4-(1-methyl-ethyl)-5-oxo-1H-imidazol-2-yl]- 5-methyl-3-pyridinecarboxylicacid;alternatechemicalname (±)-2-(4-isopropyl-4-methyl-5-oxo-2-imidazolin-2-yl)-5-methylnicotinic acid). Imazapyr is sold by American Cyanamid under the trade name Arsenal, and has active ingredient 2-[4,5-dihydro-4-methyl-4-(1-methylethyl)-5-oxo-1H-imidazol-2-yl]-3-pyridinecarboxylic acid) This line is resistant to herbicides applied either pre-emergence or post-emergence.

SMILES: CCc1cnc(C2=NC(C)(C(C)C)C(=O)N2)c(C(=O)O)c1 (racemic) [imazethapyr, (±)-2-[4,5-dihydro-4-methyl-4-(1-methylethyl)-5-oxo-1H-imidazol-2-yl]-5-ethyl-3-pyridinecarboxylic acid]
- Rating of rice plant vigor ([1]; 0.063 lb. a.i./acre): 9.01 ± 0.59
- Rating of rice plant vigor ([1]; 0.125 lb. a.i./acre): 5.71 ± 0.93
- Rating of rice plant vigor ([1]; 0.313 lb. a.i./acre): about 4.0
- Rating of rice plant vigor ([1]; 0.313 lb. a.i./acre, listed as Imazethapyr): 4.00 ± 0.32
- Time to visible resumption of growth after herbicide application ([1]; ATCC 97523 plants, greenhouse test): about two weeks
- Visible injury (in words) ([1]; plants with only the second resistance mechanism, 0.313 lb a.i./acre, 36 days after treatment): substantial injury
- Resistance of the rice line (in words) (ATCC 75295 rice line; five-leaf stage (plants fifteen days older), same rates as in the three-leaf test): good resistance
- Resistance of the rice line (in words) (ATCC 75295 rice line; three-leaf stage, per acre a.i.: Accent 0.50 ounce, Pursuit 1.00 ounce, Scepter 3.00 ounces, Beacon 0.57 ounce, 0.25% nonionic surfactant): good resistance
- Symptoms of injury (in words) [2]: No symptoms of injury
- Symptoms of injury (in words) [3]: either severely injured or dead
- Resistance of the rice line (in words) [4]: resistance
